Like-named read-outs stand apart in the source and are kept apart here.
What was measured:
rat GPR55 = target: T1, rat GPR55 (Rattus norvegicus, UniProt F1MAK4); test: [35S]-GTPγS binding, membranes of HEK293s cells transfected with rat GPR55; assay type: biochemical
T1 construct: expressed in transfected cells; host or cells: HEK293s, transient transfection; membranes prepared
T1 sequence (F1MAK4 1-319): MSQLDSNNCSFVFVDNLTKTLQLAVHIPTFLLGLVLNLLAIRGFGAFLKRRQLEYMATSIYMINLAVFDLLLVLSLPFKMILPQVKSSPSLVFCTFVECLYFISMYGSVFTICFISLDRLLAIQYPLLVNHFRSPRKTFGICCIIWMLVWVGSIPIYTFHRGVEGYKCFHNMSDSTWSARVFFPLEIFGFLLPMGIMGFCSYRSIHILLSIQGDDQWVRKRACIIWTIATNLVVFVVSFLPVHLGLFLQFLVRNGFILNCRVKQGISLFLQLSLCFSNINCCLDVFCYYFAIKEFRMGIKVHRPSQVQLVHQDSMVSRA
Description: (§1) HEK293s cells were transiently transfected with cDNA encoding rat or mouse CB1 or GPR55 and membranes were prepared as previously described (Ryberg et al. [2007]). In short, agonist activities in [^35S]-GTPγS binding assays were determined by the addition of ligand at 30°C for 45 min in membrane buffer [50 mmol/L NaCl, 5 mmol/L MgCl2, 0.5 mmol/L EDTA, 25 mmol/L HEPES (all Sigma, Gillingham, Dorset, UK); pH 7.4] containing 0.05 μg μL^−1 of membrane protein with 0.01% BSA, 25 μmol/L guanosine 5′-diphosphate (GDP), 100 μmol/L dithiothreitol (DTT), and 0.53 nmol/L [^35S]GTPγS (PerkinElmer) in a final volume of 200 μL. Antagonist assays were performed similarly, with the addition of an EC80 concentration of CP55940 as a nonselective CB1/CB2 agonist in conjunction with the ligand to be tested. Nonspecific binding was determined in the presence of 20 μmol/L unlabeled GTPγS. The reaction was terminated by addition of ice-cold wash buffer (50 mmol/L Tris-HCl, 5 mmol/L MgCl2, 50 mmol/L NaCl; pH 7.4) followed by rapid filtration under vacuum through 96-well B-glass fiber filter plates (PerkinElmer, Waltham, Massachusetts, USA) using a Biomek FX (Beckman Coulter, Bromma, Sweden). The filter plates were dried (30 min at 50°C) before scintillation liquid (PerkinElmer) was added onto the filters and the bound radioactivity was determined using a scintillation counter (Wallac). Data were fitted with a four-parameter logistic fit using the equation y = A + (B − A)/1 + ((C/x)^D), where A is no activation, B is full activation, C is the EC50, and D is the Hill slope. All data were based on at least three independent experiments.

mouse GPR55 = target: T2, mouse GPR55 (Mus musculus, UniProt Q3UJF0); test: [35S]-GTPγS binding, membranes of HEK293s cells transfected with mouse GPR55; assay type: biochemical; conditions: mean ± SEM
T2 construct: expressed in transfected cells; host or cells: HEK293s, transient transfection; membranes prepared
Description: as §1

[1] = system: anesthetized Sprague–Dawley (SD) rats; test: Hemodynamic responses (MABP, HR) in anesthetized normotensive rats; assay type: in vivo, rat
Description: (§2) All experiments performed under terminal anesthesia were carried out following approval by Robert Gordon University Animal Ethics Panel. Anesthesia was induced in male SD rats (200–300 g) by sodium pentobarbital [60 mg kg^−1 intraperitoneal (i.p.) injection]. Male/female WT and GPR55^−/− mice (25–35 g) were anesthetized with a mixture of ketamine (120 mg kg^−1) and xylazine (16 mg kg^−1) via i.p. injection. For both species the trachea was cannulated to allow artificial respiration with room air when required (54 strokes min^−1 and tidal volume 1.5 mL 100 g^−1 for rats; 120 strokes min^−1 and tidal volume 100 μL 10 g^−1 for mice) and the left carotid artery and right jugular vein were cannulated for the measurement of arterial BP (MLT844 Physiological Pressure Transducer; AD Instruments, Oxford, UK) and drug administration, respectively. Core temperature was monitored continuously and maintained at 37–38°C with the aid of a Vetcare heated pad (Harvard Apparatus Ltd., Boston, Massachusetts, USA). Anesthesia was monitored by foot pinch reflex and maintained throughout by administration of additional doses of anesthetic (rats: 3–4 mg kg^−1 of sodium pentobarbital salt i.v.; mice: 50 μL 25 g^−1of ketamine/xylazine i.p.) every 40 min, or as required. […] Heart rate (HR) was calculated from the ECG and recorded throughout the entire experimental period. After a stabilization period of approximately 15 min dose–response experiments were carried out as described below.
(§3) As a preliminary assessment of the effects of ACEA on arterial BP, a single bolus intravenous dose (3 mg kg^−1; selected from the literature as a dose known to produce a depressor response) was given to anesthetized rats. […] The time interval between drug administrations was 10–15 min to allow BP values to return to predrug values.

[2] = system: anesthetized WT and GPR55−/− mice; test: Hemodynamic responses (MABP, HR) in anesthetized WT and GPR55−/− mice; assay type: in vivo, mouse
Description: as §2, §3

mouse CB1 = target: T3, mouse CB1 (Mus musculus, UniProt P47746); test: [35S]-GTPγS binding, membranes of HEK293s cells transfected with mouse CB1; assay type: biochemical; conditions: mean ± SEM
T3 construct: expressed in transfected cells; host or cells: HEK293s, transient transfection; membranes prepared
Description: (§4) Antagonist assays were performed similarly, with the addition of an EC80 concentration of CP55940 as a nonselective CB1/CB2 agonist in conjunction with the ligand to be tested. Nonspecific binding was determined in the presence of 20 μmol/L unlabeled GTPγS. The reaction was terminated by addition of ice-cold wash buffer (50 mmol/L Tris-HCl, 5 mmol/L MgCl2, 50 mmol/L NaCl; pH 7.4) followed by rapid filtration under vacuum through 96-well B-glass fiber filter plates (PerkinElmer, Waltham, Massachusetts, USA) using a Biomek FX (Beckman Coulter, Bromma, Sweden). The filter plates were dried (30 min at 50°C) before scintillation liquid (PerkinElmer) was added onto the filters and the bound radioactivity was determined using a scintillation counter (Wallac). Data were fitted with a four-parameter logistic fit using the equation y = A + (B − A)/1 + ((C/x)^D), where A is no activation, B is full activation, C is the EC50, and D is the Hill slope. All data were based on at least three independent experiments.

[3] = system: conscious WT, CB1−/− and GPR55−/− mice; test: Blood pressure and heart rate responses in conscious mice (WT, CB1−/−, GPR55−/−); conditions: metoprolol (10 mg kg−1 i.v.); conscious GPR55−/− mice
rat CB1 = target: T4, rat CB1 (Rattus norvegicus, UniProt P20272); test: [35S]-GTPγS binding, membranes of HEK293s cells transfected with rat CB1; assay type: biochemical; conditions: for EC50: mean ± SEM
T4 construct: expressed in transfected cells; host or cells: HEK293s, transient transfection; membranes prepared
Description: as §4

[4] = Blood concentration estimated from dose and blood volume; conditions: ACEA 3 mg kg−1; assuming total blood volume ∼20 mL in a 300 g rat
Description: Therefore, in an attempt to determine whether GPR55 plays a role in the depressor response to ACEA we studied the hemodynamic responses in anesthetized WT and GPR55^−/− mice.

[5] = agonist mode, at least three experiments, read-out: GPR55 EC50, Mouse
[6] = agonist mode, at least three experiments, read-out: CB1 EC50, Mouse
[7] = antagonist mode, vs EC80 concentration of CP55940, read-out: CB1 EC50, Mouse (ligand behaved as an antagonist)

T2 sequence (Q3UJF0 whole entry): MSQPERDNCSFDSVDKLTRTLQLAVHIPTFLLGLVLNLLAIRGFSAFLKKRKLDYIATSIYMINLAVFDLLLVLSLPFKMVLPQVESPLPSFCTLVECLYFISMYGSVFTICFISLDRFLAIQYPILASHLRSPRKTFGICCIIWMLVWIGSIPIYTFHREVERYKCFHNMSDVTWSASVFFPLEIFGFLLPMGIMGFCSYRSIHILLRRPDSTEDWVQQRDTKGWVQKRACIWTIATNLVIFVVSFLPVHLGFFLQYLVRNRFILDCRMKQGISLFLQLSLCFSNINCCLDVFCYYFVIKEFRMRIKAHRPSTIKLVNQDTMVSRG
T4 sequence (P20272 whole entry): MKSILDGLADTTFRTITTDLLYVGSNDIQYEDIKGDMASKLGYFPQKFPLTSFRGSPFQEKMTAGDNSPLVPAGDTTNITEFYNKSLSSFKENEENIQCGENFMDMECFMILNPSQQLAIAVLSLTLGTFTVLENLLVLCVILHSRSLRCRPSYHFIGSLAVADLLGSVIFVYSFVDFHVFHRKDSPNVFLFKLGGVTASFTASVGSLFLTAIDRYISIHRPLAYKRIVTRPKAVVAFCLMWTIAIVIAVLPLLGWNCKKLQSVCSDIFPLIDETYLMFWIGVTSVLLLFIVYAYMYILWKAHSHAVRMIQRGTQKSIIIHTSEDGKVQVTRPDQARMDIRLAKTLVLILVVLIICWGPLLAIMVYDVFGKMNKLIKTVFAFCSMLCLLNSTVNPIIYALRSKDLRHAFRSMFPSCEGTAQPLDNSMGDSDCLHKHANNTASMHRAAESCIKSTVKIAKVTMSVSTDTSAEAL
T3 sequence (P47746 whole entry): as the sequence (P20272 whole entry) above, with E95D counted along it

Work on CCCCC/C=C\C/C=C\C/C=C\C/C=C\CCCC(=O)NCCO [AEA, anandamide] yielded an EC50 (rat GPR55) of 24 ± 3 nM and an EC50 (mouse GPR55; [5]) of 38 ± 3 nM.

With C=C(C)[C@@H]1CCC(C)=C[C@H]1c1c(O)cc(CCCCC)cc1O [CBD, cannabidiol] the “effect on HR” value ([1]; CBD 50 μg kg−1, any experiments (rats and mice), data not shown) was “unaffected”, the “reduction of AAC value of the depressor response to ACEA” value ([1]; CBD alone 50 μg kg−1, ACEA 3 mg kg−1, P < 0.05) was “approximately 50%” and the blood pressure response ([1]; CBD alone 50 μg kg−1 single bolus, P < 0.05) was “small but measurable and statistically significant depressor response”. The blood pressure response ([2]; CBD alone 50 μg kg−1, WT and GPR55−/− mice) was “depressor responses of a similar magnitude”, the EC50 (mouse CB1; [6]) was greater than 30000 nM and the EC50 (rat GPR55) was 624 ± 13 nM. For the same compound, the EC50 (mouse GPR55; antagonist mode, vs EC80 concentration of CP55940, read-out: GPR55 EC50, Mouse (ligand behaved as an antagonist)) was 780 ± 8 nM.

In the case of COCCc1ccc(OCC(O)CNC(C)C)cc1 (stereo not drawn) [metoprolol], the “effect on HR” value [3] is reported as “profound and long-lasting bradycardia”.

With Cc1c(C(=O)NN2CCOCC2)nn(-c2ccc(Cl)cc2Cl)c1-c1ccc(I)cc1 [AM281, 1-(2,4-dichlorophenyl)-5-(4-iodophenyl)-4-methyl-N-4-morpholinyl-1H-pyrazole-3-carboxamide] the EC50 (mouse CB1; [7]) was 8 ± 1 nM, the EC50 (rat GPR55) was greater than 30000 nM and the EC50 (mouse GPR55; [5]) was greater than 30000 nM. For the same compound, the EC50 (rat CB1; antagonist mode, vs EC80 concentration of CP55940, read-out: CB1 EC50, Rat (ligand behaved as an antagonist)) was 13 ± 4 nM.

In the case of CCCCC/C=C\C/C=C\C/C=C\C/C=C\CCCC(=O)NCCCl [ACEA, arachidonyl-2′-chloroethylamide], the “expected total (not necessarily free) blood concentration” value [4] is reported as 100 to 120 nmol/L, the “effect on HR” value ([1]; ACEA single bolus 3 mg kg−1 i.v.) is reported as “no effect” and the “blood pressure (MABP) response” value ([1]; ACEA single bolus 3 mg kg−1 i.v., P < 0.001) is reported as “reproducible and pronounced depressor response”. The “effect on HR” value ([2]; ACEA 3 mg kg−1, WT and GPR55−/− mice) was “nor was there any measurable effect”, the “depressor response distinguishable from vehicle” value ([2]; ACEA 3 mg kg−1, either WT or GPR55−/− mice) was “did not produce a depressor response” and the EC50 (mouse CB1; [6]) was 3 ± 0.5 nM. For the same compound, the EC50 (rat GPR55; agonist mode, mean ± SEM, at least three experiments, read-out: GPR55 EC50, Rat) was 78 ± 4 nM, the EC50 (mouse GPR55; [5]) was 62 ± 3 nM and the “higher affinity for CB1 as compared to GPR55” value (rat CB1; GTPγS binding, both mouse and rat) was “approximately 10 fold”. It also gave an EC50 (rat CB1; agonist mode, at least three experiments, read-out: CB1 EC50, Rat) of 7 ± 1 nM.

For Cc1c(C(=O)NN2CCCCC2)nn(-c2ccc(Cl)cc2Cl)c1-c1ccc(I)cc1 [AM251, 1-(2,4-dichlorophenyl)-5-(4-iodophenyl)-4-methyl-N-(piperidin-1-yl)-1H-pyrazole-3-carboxamide], the “effect on magnitude and duration of the depressor response to ACEA” value ([1]; AM251 1 and 3 mg kg−1, ACEA 3 mg kg−1, dose-dependent, P < 0.01) was “attenuated”, the “depressor response in the presence of CBD” value ([2]; AM251 (1 and 3 mg kg−1) with CBD (50 μg kg−1), mice) was “augmented” and the EC50 (mouse CB1; [7]) was 13 ± 2 nM. The EC50 (rat GPR55) was 74 ± 3 nM, the EC50 (mouse GPR55; [5]) was 68 ± 3 nM and the “higher potency for CB1 (antagonist) than GPR55 (agonist)” value (rat CB1; GTPγS binding, rat and mouse) was “three to five”.

Source: PMC4492759, “Pharmacological profiling of the hemodynamic effects of cannabinoid ligands: a combined in vitro and in vivo approach” (Pharmacology Research & Perspectives, 2015)
